Assay results: publication PMC6120666 (The EMBO Journal, 2018)

Experiments:
Test in all cases: Drug affinity chromatography with c-ponatinib and LC-MS/MS (ponatinib interactome)
Assay type in all cases: binding
[1] = molecular target: T1, proteins of U2OS cell lysate (Homo sapiens, UniProt P21796); conditions: captured protein VDAC1, Rank 118
T1 construct: Proteins enriched by c-ponatinib from U2OS cell lysate; endogenous in cells; host or cells: U2OS cell lysate
Procedure, shortened: (§1)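 Proteins were identified by nano-UPLC–MS/MS after elution with formic acid and trypsin digestion. They were captured from U2OS lysate (2 mg protein per pulldown, NP-40 buffer) on amine-coupled NHS beads during a 2 h incubation at 4 °C.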

[2] = molecular target: T2, proteins of U2OS cell lysate (Homo sapiens, UniProt O00264); conditions: PGRMC1, Membrane-associated progesterone receptor component 1
T2 construct: Proteins enriched by c-ponatinib from U2OS cell lysate; endogenous in cells; host or cells: U2OS cell lysate
Procedure, shortened: as §1

[3] = molecular target: T3, proteins of U2OS cell lysate (Homo sapiens, UniProt O00410); conditions: IPO5, Importin-5
T3 construct: Proteins enriched by c-ponatinib from U2OS cell lysate; endogenous in cells; host or cells: U2OS cell lysate
Procedure, shortened: as §1

[4] = molecular target: T4, proteins of U2OS cell lysate (Homo sapiens, UniProt O14818); conditions: PSMA7;PSMA8, Proteasome subunit alpha type-7
T4 construct: Proteins enriched by c-ponatinib from U2OS cell lysate; endogenous in cells; host or cells: U2OS cell lysate
Procedure, shortened: as §1

[5] = molecular target: T5, proteins of U2OS cell lysate (Homo sapiens, UniProt P05388); conditions: RPLP0;RPLP0P6, 60S acidic ribosomal protein P0
T5 construct: Proteins enriched by c-ponatinib from U2OS cell lysate; endogenous in cells; host or cells: U2OS cell lysate
Procedure, shortened: as §1

[6] = molecular target: T6, proteins of U2OS cell lysate (Homo sapiens, UniProt P07948); conditions: LYN, Tyrosine-protein kinase Lyn
T6 construct: Proteins enriched by c-ponatinib from U2OS cell lysate; endogenous in cells; host or cells: U2OS cell lysate
Procedure, shortened: as §1

[7] = molecular target: T7, proteins of U2OS cell lysate (Homo sapiens, UniProt P09382); conditions: LGALS1, Galectin-1
T7 construct: Proteins enriched by c-ponatinib from U2OS cell lysate; endogenous in cells; host or cells: U2OS cell lysate
Procedure, shortened: as §1

[8] = molecular target: T8, proteins of U2OS cell lysate (Homo sapiens, UniProt P16615); conditions: ATP2A2, Sarcoplasmic/endoplasmic reticulum calcium ATPase 2
T8 construct: Proteins enriched by c-ponatinib from U2OS cell lysate; endogenous in cells; host or cells: U2OS cell lysate
Procedure, shortened: as §1

[9] = molecular target: T9, proteins of U2OS cell lysate (Homo sapiens, UniProt P31947); conditions: SFN, 14-3-3 protein sigma
T9 construct: Proteins enriched by c-ponatinib from U2OS cell lysate; endogenous in cells; host or cells: U2OS cell lysate
Procedure, shortened: as §1

[10] = molecular target: T10, proteins of U2OS cell lysate (Homo sapiens, UniProt P33991); conditions: MCM4, DNA replication licensing factor MCM4
T10 construct: Proteins enriched by c-ponatinib from U2OS cell lysate; endogenous in cells; host or cells: U2OS cell lysate
Procedure, shortened: as §1

[11] = molecular target: T11, proteins of U2OS cell lysate (Homo sapiens, UniProt P35232); conditions: PHB, Prohibitin
T11 construct: Proteins enriched by c-ponatinib from U2OS cell lysate; endogenous in cells; host or cells: U2OS cell lysate
Procedure, shortened: as §1

[12] = molecular target: T12, proteins of U2OS cell lysate (Homo sapiens, UniProt P49792); conditions: RANBP2, E3 SUMO-protein ligase RanBP2
T12 construct: Proteins enriched by c-ponatinib from U2OS cell lysate; endogenous in cells; host or cells: U2OS cell lysate
Procedure, shortened: as §1

[13] = molecular target: T13, proteins of U2OS cell lysate (Homo sapiens, UniProt P54753); conditions: EPHB3, Ephrin type-B receptor 3
T13 construct: Proteins enriched by c-ponatinib from U2OS cell lysate; endogenous in cells; host or cells: U2OS cell lysate
Procedure, shortened: as §1

[14] = molecular target: T14, proteins of U2OS cell lysate (Homo sapiens, UniProt P78371); conditions: CCT2, T-complex protein 1 subunit beta
T14 construct: Proteins enriched by c-ponatinib from U2OS cell lysate; endogenous in cells; host or cells: U2OS cell lysate
Procedure, shortened: as §1

[15] = molecular target: T15, proteins of U2OS cell lysate (Homo sapiens, UniProt Q02218); conditions: OGDH;OGDHL, 2-oxoglutarate dehydrogenase, mitochondrial
T15 construct: Proteins enriched by c-ponatinib from U2OS cell lysate; endogenous in cells; host or cells: U2OS cell lysate
Procedure, shortened: as §1

[16] = molecular target: T16, proteins of U2OS cell lysate (Homo sapiens, UniProt Q07065); conditions: CKAP4, Cytoskeleton-associated protein 4
T16 construct: Proteins enriched by c-ponatinib from U2OS cell lysate; endogenous in cells; host or cells: U2OS cell lysate
Procedure, shortened: as §1

[17] = molecular target: T17, proteins of U2OS cell lysate (Homo sapiens, UniProt Q15365); conditions: PCBP1, Poly(rC)-binding protein 1
T17 construct: Proteins enriched by c-ponatinib from U2OS cell lysate; endogenous in cells; host or cells: U2OS cell lysate
Procedure, shortened: as §1

[18] = molecular target: T18, proteins of U2OS cell lysate (Homo sapiens, UniProt Q9UMS4); conditions: PRPF19, Pre-mRNA-processing factor 19
T18 construct: Proteins enriched by c-ponatinib from U2OS cell lysate; endogenous in cells; host or cells: U2OS cell lysate
Procedure, shortened: as §1

[19] = molecular target: T19, proteins of U2OS cell lysate (Homo sapiens, UniProt Q9Y512); conditions: SAMM50, Sorting and assembly machinery component 50 homolog
T19 construct: Proteins enriched by c-ponatinib from U2OS cell lysate; endogenous in cells; host or cells: U2OS cell lysate
Procedure, shortened: as §1

T16 sequence (Q07065 whole entry): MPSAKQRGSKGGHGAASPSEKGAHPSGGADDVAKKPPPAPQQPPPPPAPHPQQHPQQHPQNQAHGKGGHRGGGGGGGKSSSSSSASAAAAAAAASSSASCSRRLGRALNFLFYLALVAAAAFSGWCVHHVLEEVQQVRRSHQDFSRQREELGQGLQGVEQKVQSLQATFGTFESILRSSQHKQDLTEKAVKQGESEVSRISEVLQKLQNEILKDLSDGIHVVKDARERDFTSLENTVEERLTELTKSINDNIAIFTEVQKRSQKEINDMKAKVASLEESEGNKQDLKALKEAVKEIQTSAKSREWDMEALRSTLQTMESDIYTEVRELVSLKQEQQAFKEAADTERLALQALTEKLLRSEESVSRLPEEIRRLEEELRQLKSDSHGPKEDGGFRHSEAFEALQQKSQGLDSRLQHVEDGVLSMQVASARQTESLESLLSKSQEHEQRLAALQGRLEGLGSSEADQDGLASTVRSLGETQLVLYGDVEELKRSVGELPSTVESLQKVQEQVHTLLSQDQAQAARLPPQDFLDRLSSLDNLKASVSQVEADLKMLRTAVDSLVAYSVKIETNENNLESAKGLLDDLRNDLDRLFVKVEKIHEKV
T3 sequence (O00410 whole entry): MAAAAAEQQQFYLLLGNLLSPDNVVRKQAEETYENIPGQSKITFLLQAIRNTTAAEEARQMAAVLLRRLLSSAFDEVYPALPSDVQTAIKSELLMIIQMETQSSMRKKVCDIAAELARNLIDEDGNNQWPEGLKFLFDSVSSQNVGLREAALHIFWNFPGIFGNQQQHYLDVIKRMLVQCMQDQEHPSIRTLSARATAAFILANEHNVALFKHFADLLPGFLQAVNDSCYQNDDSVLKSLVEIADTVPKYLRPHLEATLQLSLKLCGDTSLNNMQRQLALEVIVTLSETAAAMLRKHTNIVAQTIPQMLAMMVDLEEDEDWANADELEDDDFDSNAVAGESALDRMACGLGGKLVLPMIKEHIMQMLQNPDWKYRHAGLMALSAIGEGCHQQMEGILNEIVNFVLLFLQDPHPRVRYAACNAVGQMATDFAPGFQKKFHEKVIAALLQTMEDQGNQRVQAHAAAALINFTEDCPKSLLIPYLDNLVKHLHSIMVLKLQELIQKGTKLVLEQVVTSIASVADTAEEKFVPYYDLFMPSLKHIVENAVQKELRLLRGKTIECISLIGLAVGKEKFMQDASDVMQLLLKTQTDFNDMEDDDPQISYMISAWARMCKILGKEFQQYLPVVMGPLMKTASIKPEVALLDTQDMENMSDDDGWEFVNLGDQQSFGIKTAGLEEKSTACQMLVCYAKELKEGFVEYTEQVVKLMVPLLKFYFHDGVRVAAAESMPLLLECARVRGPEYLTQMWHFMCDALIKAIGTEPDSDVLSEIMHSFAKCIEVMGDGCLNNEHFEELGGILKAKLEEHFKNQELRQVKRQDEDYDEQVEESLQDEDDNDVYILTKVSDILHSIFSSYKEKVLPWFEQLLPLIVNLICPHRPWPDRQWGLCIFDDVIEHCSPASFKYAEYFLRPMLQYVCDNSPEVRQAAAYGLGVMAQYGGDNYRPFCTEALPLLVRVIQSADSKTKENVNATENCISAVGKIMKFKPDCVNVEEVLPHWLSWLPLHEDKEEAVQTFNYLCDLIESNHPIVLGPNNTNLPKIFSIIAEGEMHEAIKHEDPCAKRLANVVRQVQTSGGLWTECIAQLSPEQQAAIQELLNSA
T17 sequence (Q15365 whole entry): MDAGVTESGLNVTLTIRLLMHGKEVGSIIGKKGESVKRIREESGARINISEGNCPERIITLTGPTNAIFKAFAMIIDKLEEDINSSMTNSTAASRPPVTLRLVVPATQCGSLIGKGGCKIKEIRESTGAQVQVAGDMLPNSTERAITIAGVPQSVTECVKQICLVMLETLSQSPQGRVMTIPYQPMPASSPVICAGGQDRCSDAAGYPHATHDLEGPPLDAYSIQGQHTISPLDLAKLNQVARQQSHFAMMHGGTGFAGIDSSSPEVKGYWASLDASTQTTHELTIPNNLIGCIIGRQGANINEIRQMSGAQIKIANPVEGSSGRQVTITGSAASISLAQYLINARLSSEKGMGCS
T15 sequence (Q02218 41-1023): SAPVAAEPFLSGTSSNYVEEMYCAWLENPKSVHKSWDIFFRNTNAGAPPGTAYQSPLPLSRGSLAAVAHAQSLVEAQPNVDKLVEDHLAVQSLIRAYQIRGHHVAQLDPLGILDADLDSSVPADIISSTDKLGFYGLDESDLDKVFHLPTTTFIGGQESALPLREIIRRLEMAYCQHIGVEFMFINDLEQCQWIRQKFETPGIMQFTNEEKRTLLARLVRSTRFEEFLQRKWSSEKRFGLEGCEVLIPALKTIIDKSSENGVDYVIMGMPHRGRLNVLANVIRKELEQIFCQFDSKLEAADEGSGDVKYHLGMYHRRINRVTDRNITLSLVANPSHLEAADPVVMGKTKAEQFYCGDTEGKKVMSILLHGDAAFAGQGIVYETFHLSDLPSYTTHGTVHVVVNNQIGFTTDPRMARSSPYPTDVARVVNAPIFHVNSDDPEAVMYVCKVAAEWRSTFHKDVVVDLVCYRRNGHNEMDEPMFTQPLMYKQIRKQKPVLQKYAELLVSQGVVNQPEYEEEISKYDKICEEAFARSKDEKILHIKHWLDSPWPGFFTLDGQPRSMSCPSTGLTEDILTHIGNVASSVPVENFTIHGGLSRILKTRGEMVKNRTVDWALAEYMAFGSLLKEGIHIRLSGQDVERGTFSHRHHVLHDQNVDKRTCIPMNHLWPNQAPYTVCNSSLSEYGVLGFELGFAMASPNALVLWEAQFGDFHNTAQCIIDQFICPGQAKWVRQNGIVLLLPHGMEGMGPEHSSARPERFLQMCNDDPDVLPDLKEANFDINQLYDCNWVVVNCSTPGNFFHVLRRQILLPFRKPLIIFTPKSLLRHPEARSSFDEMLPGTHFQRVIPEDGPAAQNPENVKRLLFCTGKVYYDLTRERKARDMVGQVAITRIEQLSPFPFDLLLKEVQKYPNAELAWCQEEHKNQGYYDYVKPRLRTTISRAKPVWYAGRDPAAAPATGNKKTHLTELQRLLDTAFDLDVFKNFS
T8 sequence (P16615 whole entry): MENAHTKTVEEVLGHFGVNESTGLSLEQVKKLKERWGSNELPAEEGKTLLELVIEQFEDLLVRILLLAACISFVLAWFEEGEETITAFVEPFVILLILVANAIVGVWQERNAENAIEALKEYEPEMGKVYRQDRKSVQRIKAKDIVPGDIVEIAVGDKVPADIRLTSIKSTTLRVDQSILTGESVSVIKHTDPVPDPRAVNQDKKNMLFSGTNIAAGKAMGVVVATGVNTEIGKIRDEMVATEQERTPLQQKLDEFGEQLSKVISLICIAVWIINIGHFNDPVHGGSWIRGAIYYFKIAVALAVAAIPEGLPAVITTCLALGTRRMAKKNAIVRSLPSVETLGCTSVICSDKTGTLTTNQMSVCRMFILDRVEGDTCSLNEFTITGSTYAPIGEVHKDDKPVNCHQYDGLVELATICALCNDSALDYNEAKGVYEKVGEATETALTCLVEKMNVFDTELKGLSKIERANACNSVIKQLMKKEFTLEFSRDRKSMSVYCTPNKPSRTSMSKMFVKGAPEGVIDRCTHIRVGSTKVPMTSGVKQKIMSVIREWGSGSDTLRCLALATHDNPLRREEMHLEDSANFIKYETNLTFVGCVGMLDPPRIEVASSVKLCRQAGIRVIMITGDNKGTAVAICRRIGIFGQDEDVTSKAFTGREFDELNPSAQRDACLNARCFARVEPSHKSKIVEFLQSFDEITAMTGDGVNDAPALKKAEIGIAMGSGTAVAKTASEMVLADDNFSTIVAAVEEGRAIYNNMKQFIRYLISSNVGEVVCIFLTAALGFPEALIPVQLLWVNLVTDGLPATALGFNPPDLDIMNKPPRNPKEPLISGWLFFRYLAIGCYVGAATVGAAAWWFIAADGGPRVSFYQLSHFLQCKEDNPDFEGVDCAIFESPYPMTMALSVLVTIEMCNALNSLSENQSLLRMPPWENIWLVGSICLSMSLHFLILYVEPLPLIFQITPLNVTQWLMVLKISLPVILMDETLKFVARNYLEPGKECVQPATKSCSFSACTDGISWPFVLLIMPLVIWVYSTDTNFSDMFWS
T19 sequence (Q9Y512 whole entry): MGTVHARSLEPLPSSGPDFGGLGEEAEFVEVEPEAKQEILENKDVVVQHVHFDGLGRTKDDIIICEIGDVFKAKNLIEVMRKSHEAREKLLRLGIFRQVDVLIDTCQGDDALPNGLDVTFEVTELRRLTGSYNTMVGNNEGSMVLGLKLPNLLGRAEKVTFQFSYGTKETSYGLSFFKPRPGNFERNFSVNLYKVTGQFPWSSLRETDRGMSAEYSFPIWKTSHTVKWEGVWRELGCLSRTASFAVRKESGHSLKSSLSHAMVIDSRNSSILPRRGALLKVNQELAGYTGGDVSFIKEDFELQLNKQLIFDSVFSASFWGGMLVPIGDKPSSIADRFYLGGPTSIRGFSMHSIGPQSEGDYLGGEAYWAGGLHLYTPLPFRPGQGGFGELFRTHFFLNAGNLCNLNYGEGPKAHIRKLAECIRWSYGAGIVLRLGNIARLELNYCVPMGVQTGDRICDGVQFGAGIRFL
T6 sequence (P07948 whole entry): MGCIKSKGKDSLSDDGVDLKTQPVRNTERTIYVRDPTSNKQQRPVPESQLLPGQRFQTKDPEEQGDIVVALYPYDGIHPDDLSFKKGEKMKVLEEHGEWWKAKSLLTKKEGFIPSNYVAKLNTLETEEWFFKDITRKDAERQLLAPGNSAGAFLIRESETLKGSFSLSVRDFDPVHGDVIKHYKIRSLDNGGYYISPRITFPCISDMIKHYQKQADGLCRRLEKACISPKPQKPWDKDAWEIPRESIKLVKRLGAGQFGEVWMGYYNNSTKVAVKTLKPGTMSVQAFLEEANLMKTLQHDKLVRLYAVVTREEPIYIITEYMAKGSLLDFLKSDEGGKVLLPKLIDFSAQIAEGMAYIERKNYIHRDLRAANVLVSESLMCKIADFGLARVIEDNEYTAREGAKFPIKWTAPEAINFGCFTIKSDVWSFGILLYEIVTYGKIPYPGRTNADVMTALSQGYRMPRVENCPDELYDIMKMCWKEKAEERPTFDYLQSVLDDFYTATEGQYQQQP

SMILES | Average LFQ intensity [1] | Average LFQ PON_WT [2] | Average LFQ PON_WT [3] | Average LFQ PON_WT [4] | Average LFQ PON_WT [5] | Average LFQ PON_WT [6] | Average LFQ PON_WT [7] | Average LFQ PON_WT [8] | Average LFQ PON_WT [9] | Average LFQ PON_WT [10] | Average LFQ PON_WT [11] | Average LFQ PON_WT [12] | Average LFQ PON_WT [13] | Average LFQ PON_WT [14] | Average LFQ PON_WT [15] | Average LFQ PON_WT [16] | Average LFQ PON_WT [17] | Average LFQ PON_WT [18] | Average LFQ PON_WT [19]
Cc1ccc(C(=O)Nc2ccc(CN3CCN(CCCN)CC3)c(C(F)(F)F)c2)cc1C#Cc1cnc2cccnn12 [c-ponatinib, reference compound] | 23.117 |  |  |  |  |  |  |  |  |  |  |  |  |  |  |  |  |  | 
Cc1ccc(C(=O)Nc2ccc(CN3CCN(C)CC3)c(C(F)(F)F)c2)cc1C#Cc1cnc2cccnn12 [PON] |  | 23.2724 | 21.1425 | 22.0977 | 20.5709 | 23.7419 | 23.8412 | 20.9825 | 23.8618 | 19.8468 | 29.1615 | 18.8692 | 21.3076 | 24.048 | 22.0277 | 21.3006 | 21.283 | 21.24 | 20.9007
